The record followed here is patent US6465466B1, “Uses of indolo-2 [2,3b] -quinoxalines” (priority 1995, dated 2002).

Series [1] concerns regeneration of liver tissue. Description: In vivo toxicity: liver regeneration after partial hepatectomy (liver-somatic index). Further details: species or system rats. The protocol: The in vivo toxicity of B-220 was tested in rats. A portion of the liver was removed (partial hepatectomy, PH) by surgery and the regeneration of liver tissue was studied. The regeneration was measured as liver-somatic index (LSI), in other words, the relative liver weight in percent of the body weight.
AAF (2-acetylaminofluorene) is a very toxic substance which acts as a mito-inhibitor, i.e. inhibits cell division of normal liver cells.
The results are shown in FIG. 3 wherein LSI is plotted against days after partial hepatectomy.

The subject of another series is test strain TA100. The series is described as follows: Ames test, mutagenic potential of the substances, test strain TA100. It counts as cell-based, Salmonella. The note with it: for anti-mutagenic potential (reduction of spontaneous background): TA100; for mutagenic potential (revertants/plate): TA100, with and without S9. The text has this: This example illustrates the mutagenic potential in the bacterial mutagenicity test, “Ames test”, with test strain TA100, of B-220 (FIG. 1a) and 9-OH-B-220 (FIG. 1b). S9 indicates the presence […] or absence (−S9) of a cellular enzymatic fraction capable to metabolize the tested substances. The metabolic activation is a liver fraction containing enzymes needed in metabolism. In the Figures revertants/plate, an intensity measurement of mutagenic activity, is plotted against μg B-220 and μg 9-OH-B-220.
For orientation: The Ames test uses bacterial strains that need an amino acid and regain growth without it when mutated back.

In a further series the test system is bacterial strain TA 100. The series is described as follows: Ames test, mutagenicity of MMS and EMS with and without B-220. Type of series: cell-based, Salmonella. The note with it: for mutagenicity of the mutagen alone (revertants/plate): TA 100, without B-220. The procedure:
The following example illustrates the fact that compound B-220 reduces the mutagenicity of potent mutagens in the bacterial mutagenicity test, the “Ames test”. In the test the bacterial strain TA 100 was used. […] These mutagens were MMS=Methylmethanesulphonate and EMS=Ethylmethanesulphonate. The results of the experiments carried out are shown graphically in FIGS. 2a and 2b. In the Figures revertants/plate, is plotted against microgram MMS and EMS, respectively, plus 70 μg B-220.

For another series, the system named is skin tumors. The series is described as follows: Skin tumor model, DMBA initiation and TPA promotion. It counts as in vivo, mice. The protocol:
The compounds used according to the present invention have been tested as regards the formation of tumors (skin tumors) for mice subjected to strong tumor initiating and strong tumor promotion conditions. […] Furthermore, if the administration of the compound used according to the present invention is terminated, the animals will develop the same number of tumors as in the positive control. This means that the original DNA injury remains and the tumor promoter which is administered continuously can give rise to a considerable development of tumors. Accordingly a compound used according to the present invention can stop the tumor process caused by potent tumor promoting agents in combination with potent tumor initiators.
This example illustrates a tumor model which is based on in vivo tumor initiation with one does of dimethylbenzanthracene (DMBA) where after, a potent tumor promoter […] (TPA) was administered twice a week. After a number of weeks the skin tumors can be detected and followed during the study, After approximately 100 days (A) the positive controls reached the maximum, where after the total number declines due to the behavior of the animals. […] After six months exposure of B-220+TPA in the B-220 group, B-220 was no longer administered (B).

Series [2] in a line: Whole body gamma-irradiation of mice. Type of series: in vivo. The protocol:
Gamma-irradiation is a very potent agent which can induce oxidative stress, reduce body weight gain and shorten life span. In FIG. […] The human LD50 of gamma-irradiation os approximately 3 Gy.
“B220” was administered intra peritoneal in corn oil 24 and 3 h before the irradiation.
The body weight gain of each group is shown as percent of the body weight at the time of irradiation. A lower body weight gain is an indicator of a shorter life span in the long term perspective. Gamma-irradiation is a way to induce a premature aging which is also seen as gray fur in these mice.

Series [3] relates to 8-hydroxy-2'-deoxyguanosine (8-OH-dG). Description: 8-OH-dG formation in DNA after oral 2,7-dinitrofluorene. It counts as in vivo. The note with it: rats pre-treated with B220, 2,7-dNF orally. The source says:
Oxidation of deoxyguanosine (dG), one of the bases in DNA, is an oxidative lesion of DNA related to oxidative stress. The reaction product between free radicals and dG is 8-hydroxy-2′-deoxyguanosine (8-OH-dG). This biomarker is a reaction product found in DNA, i.e. the oxidative stress is not only found as oxidants in the circulation or in the cytoplasm, but reaches the nucleus and reacts with DNA. In FIG. 8 results are shown when the urban air pollutant (result of incomplete combustion of fuels of vehicles) and carcinogen 2,7-dinitrofluorene (2,7-dNF) was administered orally to rats. In the metabolism, reactive intermediates were formed that oxidized dG to 8-OH-dG.

For series [4], the system named is human cell cultures of phagocytes. The series is described as follows: Luminol chemiluminescence in human phagocyte cultures. Type of series: cell-based. The note with it: dose dependent; intracellular, also seen extracellular; same effect as salt and free base. The text has this:
In this test the effects of “B220” have been exposed to human cell cultures of phagocytes. Luminol reacts with the markers for oxidative stress, hydrogen peroxide or the superoxide ion, and generates light. […] “B220” has the same effect both in the form of salt and the free base.

For the compound `CC(=O)Nc1ccc2c(c1)Cc1ccccc1-2` [AAF, 2-acetylaminofluorene, reference compound], the “regeneration of liver tissue (liver-somatic index, LSI)” value in series [1] (rats, days after partial hepatectomy) is “very slow”.

With `Cc1cc2nc3c4cc(O)ccc4n(CCN(C)C)c3nc2cc1C` [Example 9-OH-B-220, 2,3-Dimethyl-6-(2-dimethylaminoethyl)-9-hydroxy-6H-indolo[2,3-b]-quinoxaline], in the series on test strain TA100, the “anti-mutagenic potential (reduction of spontaneous background)” value is given as “anti-mutagenic” and the “mutagenic potential (revertants/plate)” value is “non-mutagenic”.

The term melting point denotes the temperature, or range, at which the solid turns liquid. With `CN(C)CCn1c2ccc(O)cc2c2nc3ccccc3nc21`, the melting point was 269 to 270 °C.

Consider `CCOS(C)(=O)=O` [EMS, Ethylmethanesulphonate, reference compound], for which the “mutagenicity of the mutagen alone (revertants/plate)” value with bacterial strain TA 100 is reported as “strong mutagen”.

Consider `COS(C)(=O)=O` [MMS, Methylmethanesulphonate, reference compound], for which, in the series on bacterial strain TA 100, the “mutagenicity of the mutagen alone (revertants/plate)” value is recorded as “strong mutagen”.

Regarding `Cc1cc2nc3c4ccccc4n(CCN(C)C)c3nc2cc1C` [Example B-220], the “mutagenicity of EMS when B-220 is added” value with bacterial strain TA 100 (TA 100, EMS plus 70 μg B-220) is “reduced the mutagenicity but not as much as for MMS”. Besides, the “mutagenicity of MMS when B-220 is added” value in the series with bacterial strain TA 100 (TA 100, MMS plus 70 μg B-220) is “the mutagenicity disappears”. The skin tumors entry in the series on skin tumors (after six months of B-220+TPA) is “very slight increase in tumors”; in the series on skin tumors (approximately 100 days, B-220 one hour before TPA, DMBA-initiated) it was “no tumors at all”. In addition, the “skin tumors after B-220 no longer administered” value in the series with skin tumors (after six months, TPA continued, B-220 stopped) is on record as “rapid increase of tumors”. For the same compound, the carcinogenicity result in the series with skin tumors (skin tumor model) is listed as “not a carcinogen”. Besides, the “protective effect (life span)” value in series [2] (8 Gy, administration after irradiation) is recorded as “protective effect similar to pre-treatment”; in series [2] (14 Gy, intra peritoneal in corn oil 24 and 3 h before irradiation) it was “no protective effect”. The “protective effect (increased life span)” value in series [2] (8 Gy, intra peritoneal in corn oil 24 and 3 h before irradiation) is “protective effect”. Besides, the body weight gain result in series [2] (lower doses, 1 and 6 Gy) is “increased body weight gain”. In the series with test strain TA100, the “anti-mutagenic potential (reduction of spontaneous background)” value was “anti-mutagenic”. In the series with test strain TA100, the “mutagenic potential (revertants/plate)” value is on record as “non-mutagenic”. In addition, the “regeneration of liver tissue (liver-somatic index, LSI)” value in series [1] (rat, in vivo) was “no difference from the controls”. Further, the “toxic effects in vivo” value in series [1] (rat, in vivo) is “did not show any toxic effects”. The “oxidative stress (8-OH-dG in DNA)” value in series [3] is “down-regulated to levels lower than the controls”. For the same compound, the “formation of hydrogen peroxide and superoxide ion generated by oxidase (chemiluminescence)” value in series [4] is “down regulates and even eliminates”.
